Data taken from US8741897B2, “Glucocorticoid mimetics, methods of making them, pharmaceutical compositions and uses thereof” (Boehringer Ingelheim Pharmaceuticals Inc., priority 2003, dated 2014).

Experiments:
[1] = target: T1, human glucocorticoid receptor (GR) complex (Homo sapiens, UniProt P04150); assay: Glucocorticoid receptor competitive binding assay (fluorescence polarization, TAMRA-labeled dexamethasone probe); details: compounds of Formula (IA)
T1 construct: made in house; host or cells: insect expression system (baculovirus lysate)
T1 sequence (P04150 1-777): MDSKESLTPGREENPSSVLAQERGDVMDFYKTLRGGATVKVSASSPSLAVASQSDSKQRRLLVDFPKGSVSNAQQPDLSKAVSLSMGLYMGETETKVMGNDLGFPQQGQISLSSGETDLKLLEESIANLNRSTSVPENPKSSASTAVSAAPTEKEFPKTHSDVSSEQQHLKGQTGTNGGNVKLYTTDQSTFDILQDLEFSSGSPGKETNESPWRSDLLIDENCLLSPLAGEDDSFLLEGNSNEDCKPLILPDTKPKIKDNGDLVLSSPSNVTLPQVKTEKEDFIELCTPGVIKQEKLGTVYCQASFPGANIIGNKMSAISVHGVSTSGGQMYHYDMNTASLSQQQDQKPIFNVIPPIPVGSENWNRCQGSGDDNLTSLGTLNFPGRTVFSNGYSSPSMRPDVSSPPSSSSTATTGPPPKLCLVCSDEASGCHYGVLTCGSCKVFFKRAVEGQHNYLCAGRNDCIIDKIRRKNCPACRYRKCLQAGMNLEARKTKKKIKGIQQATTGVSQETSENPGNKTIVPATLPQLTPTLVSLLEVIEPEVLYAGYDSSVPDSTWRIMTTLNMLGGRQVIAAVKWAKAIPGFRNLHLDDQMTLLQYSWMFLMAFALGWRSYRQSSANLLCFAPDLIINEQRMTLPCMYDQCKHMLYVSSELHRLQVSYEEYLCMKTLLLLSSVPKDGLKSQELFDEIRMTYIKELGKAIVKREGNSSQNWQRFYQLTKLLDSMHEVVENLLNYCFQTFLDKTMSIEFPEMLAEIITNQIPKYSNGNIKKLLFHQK
Description: Compounds of the invention were evaluated for binding to the steroid receptor by a fluorescence polarization competitive binding assay. Detailed descriptions for preparation of recombinant glucocorticoid receptor (GR) complex used in the assay is described in U.S. patent application Pub.
A. Glucocorticoid Receptor Competitive Binding Assay
Step 1. Characterization of the Fluorescent Probe
The wavelengths for maximum excitation and emission of the fluorescent probe should first be measured. An example of such a probe is rhodamine (TAMRA)-labeled dexamethasone.
The affinity of the probe for the steroid receptor was then determined in a titration experiment. The fluorescence polarization value of the probe in assay buffer was measured on an SLM-8100 fluorometer using the excitation and emission maximum values described above. Aliquots of expression vector lysate were added and fluorescence polarization was measured after each addition until no further change in polarization value was observed. Non-linear least squares regression analysis was used to calculate the dissociation constant of the probe from the polarization values obtained for lysate binding to the probe.
Step 2. Screening for Inhibitors of Probe Binding
This assay uses fluorescence polarization (FP) to quantitate the ability of test compounds to compete with tetramethyl rhodamine (TAMRA)-labeled dexamethasone for binding to a human glucocorticoid receptor (GR) complex prepared from an insect expression system. The assay buffer was: 10 mM TES, 50 mM KCl, 20 mM Na2MoO4.2H2O, 1.5 mM EDTA, 0.04% w/v CHAPS, 10% v/v glycerol, 1 mM dithiothreitol, pH 7.4. Test compounds were dissolved to 1 mM in neat DMSO and then further diluted to 10× assay concentration in assay buffer supplemented with 10% v/v DMSO. Test compounds were serially diluted at 10× assay concentrations in 10% DMSO-containing buffer in 96-well polypropylene plates. Binding reaction mixtures were prepared in 96-well black Dynex microtiter plates by sequential addition of the following assay components to each well: 15 μL of 10× test compound solution, 85 μL of GR-containing baculovirus lysate diluted 1:170 in assay buffer, and 50 μL of 15 nM TAMRA-labeled dexamethasone. Positive controls were reaction mixtures containing no test compound; negative controls (blanks) were reaction mixtures containing 0.7 μM to 2 μM dexamethasone. […] IC50 values were determined by iterative non-linear curve fitting of the FP signal data to a 4-parameter logistic equation.

[2] = system: glucocorticoid receptor function; assay: one or more of the above assays (GR binding and glucocorticoid receptor cell assays: aromatase, IL-6, TAT, MMTV-Luc, IL-8, ICAM-Luc); assay type: cell-based; details: assay not specified per compound

Structure (SMILES)	activity in the GR binding assay [1]	activity as agonists of the glucocorticoid receptor function in one or more of the above assays [2]
COc1ccc(F)cc1C(C)(C)CC(O)(Cc1[nH]c2ccncc2c1CN(C)C)C(F)(F)F (centres unmarked) [2-(3-Dimethylaminomethyl-1H-pyrrolo[3,2-c]pyridin-2-ylmethyl)-1,1,1-trifluoro-4-(5-fluoro-2-methoxyphenyl)-4-methylpentan-2-ol]	potent activity	potent agonists
Cc1cc(CC(O)(CC(C)(C)c2cc(F)ccc2O)C(F)(F)F)c2ccccc2n1 (centres unmarked) [4-Fluoro-2-[4,4,4-trifluoro-3-hydroxy-1,1-dimethyl-3-(2-methylquinolin-4-ylmethyl)butyl]phenol]	potent activity	potent agonists
CC(C)(CC(O)(Cc1cc2ccncc2[nH]1)C(F)(F)F)c1cc(Br)cc2c1OCC2 (centres unmarked) [4-(5-Bromo-2,3-dihydrobenzofuran-7-yl)-1,1,1-trifluoro-4-methyl-2-(1H-pyrrolo[2,3-c]pyridin-2-ylmethyl)pentan-2-ol]	potent activity	potent agonists
Cc1ccc(C(C)(C)CC(O)(Cc2cc3ccccc3[nH]2)C(F)(F)F)cc1C (centres unmarked) [4-(3,4-Dimethylphenyl)-1,1,1-trifluoro-2-(1H-indol-2-ylmethyl)-4-methylpentan-2-ol]	potent activity	potent agonists
CC(C)(CC(O)(Cc1cc2ccccc2[nH]1)C(F)(F)F)c1ccccn1 (centres unmarked) [1,1,1-Trifluoro-2-(1H-indol-2-ylmethyl)-4-methyl-4-pyridin-2-ylpentan-2-ol]	potent activity	potent agonists
COc1ccc(F)cc1C(C)(C)CC(O)(Cc1cc(Cl)nc(Cl)c1C#N)C(F)(F)F (centres unmarked) [2,6-Dichloro-4-[4-(5-fluoro-2-methoxyphenyl)-2-hydroxy-4-methyl-2-trifluoromethylpentyl]nicotinonitrile]	potent activity	potent agonists
Cc1cc2c(c(C(C)(C)CC(O)(Cc3cc4cnccc4[nH]3)C(F)(F)F)c1)OCC2 (centres unmarked) [1,1,1-Trifluoro-4-methyl-4-(5-methyl-2,3-dihydrobenzofuran-7-yl)-2-(1H-pyrrolo[3,2-c]pyridin-2-ylmethyl)pentan-2-ol]	potent activity	potent agonists
CC(C)(CC(O)(Cc1cc2cnccc2[nH]1)C(F)(F)F)c1cc(Br)cc2c1OCC2 (centres unmarked) [4-(5-Bromo-2,3-dihydrobenzofuran-7-yl)-1,1,1-trifluoro-4-methyl-2-(1H-pyrrolo[3,2-c]pyridin-2-ylmethyl)pentan-2-ol]	potent activity	potent agonists
COc1ccc(F)cc1C(C)(C)CC(O)(Cn1ccc2cccnc21)C(F)(F)F (centres unmarked) [1,1,1-Trifluoro-4-(5-fluoro-2-methoxyphenyl)-4-methyl-2-pyrrolo[2,3-b]pyridin-1-ylmethylpentan-2-ol]	potent activity	–
CC(C)(CC(O)(Cc1cc2cnccc2s1)C(F)(F)F)c1cc(Cl)cc2c1OCC2 (centres unmarked) [4-(5-Chloro-2,3-dihydrobenzofuran-7-yl)-1,1,1-trifluoro-4-methyl-2-thieno[3,2-c]pyridin-2-ylmethylpentan-2-ol]	potent activity	–
CC(C)(CC(O)(Cc1cc2cc(C(=O)O)ccc2[nH]1)C(F)(F)F)c1cc(Br)cc2c1OCC2 (centres unmarked) [2-[4-(5-Bromo-2,3-dihydrobenzofuran-7-yl)-2-hydroxy-4-methyl-2-trifluoromethylpentyl]-1H-indole-5-carboxylic acid]	potent activity	–
CC(C)(CC(O)(Cc1cc2ccccc2[nH]1)C(F)(F)F)c1cccc(-c2ccccc2)c1 (centres unmarked) [4-Biphenyl-3-yl-1,1,1-trifluoro-2-(1H-indol-2-ylmethyl)-4-methylpentan-2-ol]	potent activity	–
CC(C)(CC(O)(Cc1cc2cc(-c3ccccc3)ccc2[nH]1)C(F)(F)F)c1cc(F)cc2c1OCC2 (centres unmarked) [1,1,1-Trifluoro-4-(5-fluoro-2,3-dihydrobenzofuran-7-yl)-4-methyl-2-(5-phenyl-1H-indol-2-ylmethyl)pentan-2-ol]	potent activity	–

Further lines, with some results ahead:

activity in the GR binding assay [1]	Structure (SMILES)	activity as agonists of the glucocorticoid receptor function in one or more of the above assays [2]
potent activity	COc1ccc(F)cc1C(C)(C)CC(O)(Cc1cc(C)nc2ccccc12)C(F)(F)F (centres unmarked) [1,1,1-Trifluoro-4-(5-fluoro-2-methoxyphenyl)-4-methyl-2-(2-methylquinolin-4-ylmethyl)pentan-2-ol]	potent agonists
potent activity	COc1ccc(F)cc1C(C)(C)CC(O)(Cc1cc2cncnc2[nH]1)C(F)(F)F (centres unmarked) [1,1,1-Trifluoro-4-(5-fluoro-2-methoxyphenyl)-4-methyl-2-(7H-pyrrolo[2,3-d]pyrimidin-6-ylmethyl)pentan-2-ol]	potent agonists
potent activity	CNC(=O)c1ccc2[nH]c(CC(O)(CC(C)(C)c3cc(F)ccc3OC)C(F)(F)F)cc2c1 (centres unmarked) [2-[4-(5-Fluoro-2-methoxyphenyl)-2-hydroxy-4-methyl-2-trifluoromethylpentyl]-1H-indole-5-carboxylic acid methylamide]	–
potent activity	Cc1ccc(F)cc1C(C)(C)CC(O)(Cc1cc2cc(=O)[nH]cc2[nH]1)C(F)(F)F (centres unmarked) [2-[4-(5-Fluoro-2-methylphenyl)-2-hydroxy-4-methyl-2-trifluoromethylpentyl]-1,6-dihydropyrrolo[2,3-c]pyridin-5-one]	–
potent activity	COc1ccc(F)cc1C(C)(C)CC(O)(Cc1cc(Cl)nc2ccc(Cl)cc12)C(F)(F)F (centres unmarked) [2-(2,6-Dichloroquinolin-4-ylmethyl)-1,1,1-trifluoro-4-(5-fluoro-2-methoxyphenyl)-4-methylpentan-2-ol]	–
potent activity	COc1ccc(F)cc1C(C)(C)CC(O)(Cc1ccncc1)C(F)(F)F (centres unmarked) [1,1,1-Trifluoro-4-(5-fluoro-2-methoxyphenyl)-4-methyl-2-pyridin-4-ylmethylpentan-2-ol]	–
potent activity	Cc1ccc(F)cc1C(C)(C)CC(O)(Cc1cc2nnccc2[nH]1)C(F)(F)F (centres unmarked) [1,1,1-Trifluoro-4-(5-fluoro-2-methylphenyl)-4-methyl-2-(5H-pyrrolo[3,2-c]pyridazin-6-ylmethyl)pentan-2-ol]	–
potent activity	CC(C)(CC(O)(Cc1cc2ccc(C(=O)N3CCOCC3)cc2[nH]1)C(F)(F)F)c1cc(F)ccc1O (centres unmarked) [{2-[4-(5-Fluoro-2-hydroxyphenyl)-2-hydroxy-4-methyl-2-trifluoromethylpentyl]-1H-indol-6-yl}morpholin-4-ylmethanone]	–
potent activity	COc1ccc(F)cc1C(C)(C)CC(O)(Cc1cc2cc(C(=O)N3CCCCC3)ccc2[nH]1)C(F)(F)F (centres unmarked) [{2-[4-(5-Fluoro-2-methoxyphenyl)-2-hydroxy-4-methyl-2-trifluoromethylpentyl]-1H-indol-5-yl}piperidin-1-ylmethanone]	–
